Measurements published in ChEMBL document CHEMBL1201862, “PubChem BioAssay data set” (2004).
Each block holds one compound with its values, some of them ahead of it. Activity calls are given as the source filed them.

Experiments:
[1] = target: Voltage-gated inwardly rectifying potassium channel KCNH2 (Homo sapiens, UniProt Q12809); settings: Potency;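 further: confirmatory quantitative high-throughput screen measuring inhibition of hERG channel activity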
Aminopeptidase N = target: T1, Aminopeptidase N (Plasmodium falciparum FcB1/Columbia, UniProt O96935); assay: P. falciparum M1AAP inhibitors, biochemical, fluorogenic H-Leu-NHMec substrate, 1536-well (AID 1445); set-up: species or system Plasmodium falciparum 3D7, 3D7
T1 sequence (O96935 whole entry): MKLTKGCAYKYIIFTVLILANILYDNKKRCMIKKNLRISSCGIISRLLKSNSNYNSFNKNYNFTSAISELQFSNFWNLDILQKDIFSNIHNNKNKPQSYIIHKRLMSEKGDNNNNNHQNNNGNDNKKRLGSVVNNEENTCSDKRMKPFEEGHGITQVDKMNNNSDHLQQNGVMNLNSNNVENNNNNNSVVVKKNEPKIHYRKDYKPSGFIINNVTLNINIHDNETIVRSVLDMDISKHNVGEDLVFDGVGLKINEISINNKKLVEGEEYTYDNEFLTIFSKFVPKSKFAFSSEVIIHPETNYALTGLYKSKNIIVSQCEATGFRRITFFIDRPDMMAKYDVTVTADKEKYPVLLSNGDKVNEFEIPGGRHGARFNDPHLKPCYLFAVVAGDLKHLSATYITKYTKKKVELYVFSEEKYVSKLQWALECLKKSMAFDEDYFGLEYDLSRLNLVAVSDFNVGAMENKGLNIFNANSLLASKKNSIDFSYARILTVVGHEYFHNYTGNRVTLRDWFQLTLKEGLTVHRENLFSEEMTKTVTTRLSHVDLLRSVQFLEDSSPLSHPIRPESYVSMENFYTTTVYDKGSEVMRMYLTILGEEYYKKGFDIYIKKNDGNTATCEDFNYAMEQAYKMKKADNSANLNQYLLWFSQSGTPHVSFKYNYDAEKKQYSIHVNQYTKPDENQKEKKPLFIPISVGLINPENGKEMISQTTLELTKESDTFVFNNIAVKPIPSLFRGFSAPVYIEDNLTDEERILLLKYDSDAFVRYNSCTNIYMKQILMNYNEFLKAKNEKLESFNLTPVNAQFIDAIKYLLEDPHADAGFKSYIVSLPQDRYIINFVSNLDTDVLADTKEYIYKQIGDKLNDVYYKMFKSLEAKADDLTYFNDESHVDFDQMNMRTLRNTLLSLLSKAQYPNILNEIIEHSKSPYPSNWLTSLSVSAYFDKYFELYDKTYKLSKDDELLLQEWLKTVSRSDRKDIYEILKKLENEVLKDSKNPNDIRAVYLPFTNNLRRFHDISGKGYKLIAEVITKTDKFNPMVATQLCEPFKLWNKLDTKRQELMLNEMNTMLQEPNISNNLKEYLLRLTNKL

[2] = NIH-3T3 fibroblast cytotoxicity, dose response, cytotoxicity control, cell-based, fluorescence, Alamar Blue, secondary assay (AID 2327); format: functional;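 further: NIH-3T3 mouse fibroblasts cultured with fluconazole at 8 µg/mL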
[3] = C. albicans growth with fluconazole, confirmation, fluorescence, retest (AID 2467); format: functional, cell-based
[4] = target: Dual specificity tyrosine-phosphorylation-regulated kinase 1A (Rattus norvegicus, UniProt Q63470); format: biochemical, Homo sapiens
[5] = target: Glyceraldehyde-3-phosphate dehydrogenase (Homo sapiens, UniProt P04406)
Glyceraldehyde-3-phosphate dehydrogenase, sequence (P04406 whole entry): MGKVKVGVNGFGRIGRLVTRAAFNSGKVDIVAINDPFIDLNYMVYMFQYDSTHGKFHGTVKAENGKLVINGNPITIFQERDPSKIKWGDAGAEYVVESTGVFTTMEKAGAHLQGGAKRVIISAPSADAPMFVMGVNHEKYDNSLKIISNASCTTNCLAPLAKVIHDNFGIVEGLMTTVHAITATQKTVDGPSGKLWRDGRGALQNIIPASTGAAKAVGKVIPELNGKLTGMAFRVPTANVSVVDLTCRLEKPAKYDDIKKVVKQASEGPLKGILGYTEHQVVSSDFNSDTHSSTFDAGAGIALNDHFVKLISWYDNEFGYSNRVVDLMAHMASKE

[6] = target: T2, Alkaline phosphatase, tissue-nonspecific isozyme (Homo sapiens, UniProt P05186); assay: human TNAP enzyme inhibitors, SAR follow-up, biochemical, luminescent, dose response (AID 1056)
T2 sequence (P05186 whole entry): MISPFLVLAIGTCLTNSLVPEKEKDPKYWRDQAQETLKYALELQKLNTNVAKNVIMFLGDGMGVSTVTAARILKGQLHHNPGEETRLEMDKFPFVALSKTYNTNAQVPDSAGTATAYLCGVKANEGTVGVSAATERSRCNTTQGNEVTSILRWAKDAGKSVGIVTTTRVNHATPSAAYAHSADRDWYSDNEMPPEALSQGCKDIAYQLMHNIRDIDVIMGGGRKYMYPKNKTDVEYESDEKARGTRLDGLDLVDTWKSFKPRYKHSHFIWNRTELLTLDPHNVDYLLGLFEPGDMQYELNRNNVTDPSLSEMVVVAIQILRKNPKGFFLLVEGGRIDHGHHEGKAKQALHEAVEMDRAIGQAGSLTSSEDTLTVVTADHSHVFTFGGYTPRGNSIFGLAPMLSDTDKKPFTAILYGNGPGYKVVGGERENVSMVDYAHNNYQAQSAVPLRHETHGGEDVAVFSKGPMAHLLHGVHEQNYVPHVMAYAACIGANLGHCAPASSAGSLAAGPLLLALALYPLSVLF

[7] = target: Peroxisome proliferator-activated receptor gamma/Nuclear receptor coactivator 2 (Homo sapiens, UniProt P37231); format: functional;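 further: agonist potency for raising coactivator recruitment to the receptor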
Peroxisome proliferator-activated receptor gamma/Nuclear receptor coactivator 2, sequence (P37231 whole entry): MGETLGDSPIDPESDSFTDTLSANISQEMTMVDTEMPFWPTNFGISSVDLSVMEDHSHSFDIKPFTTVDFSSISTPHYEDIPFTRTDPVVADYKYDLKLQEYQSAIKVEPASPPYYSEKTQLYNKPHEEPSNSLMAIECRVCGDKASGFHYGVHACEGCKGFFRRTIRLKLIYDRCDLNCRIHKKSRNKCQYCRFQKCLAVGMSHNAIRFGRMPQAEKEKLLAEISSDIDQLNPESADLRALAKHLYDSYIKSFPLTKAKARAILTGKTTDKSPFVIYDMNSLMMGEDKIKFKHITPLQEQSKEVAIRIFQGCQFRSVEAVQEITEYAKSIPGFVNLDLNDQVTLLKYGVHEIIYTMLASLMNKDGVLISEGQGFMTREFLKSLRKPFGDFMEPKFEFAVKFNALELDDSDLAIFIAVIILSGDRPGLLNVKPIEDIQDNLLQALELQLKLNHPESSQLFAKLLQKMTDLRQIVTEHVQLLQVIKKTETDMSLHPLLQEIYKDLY
Peroxisome proliferator-activated receptor gamma/Nuclear receptor coactivator 2, sequence (Q15596 whole entry, further chain): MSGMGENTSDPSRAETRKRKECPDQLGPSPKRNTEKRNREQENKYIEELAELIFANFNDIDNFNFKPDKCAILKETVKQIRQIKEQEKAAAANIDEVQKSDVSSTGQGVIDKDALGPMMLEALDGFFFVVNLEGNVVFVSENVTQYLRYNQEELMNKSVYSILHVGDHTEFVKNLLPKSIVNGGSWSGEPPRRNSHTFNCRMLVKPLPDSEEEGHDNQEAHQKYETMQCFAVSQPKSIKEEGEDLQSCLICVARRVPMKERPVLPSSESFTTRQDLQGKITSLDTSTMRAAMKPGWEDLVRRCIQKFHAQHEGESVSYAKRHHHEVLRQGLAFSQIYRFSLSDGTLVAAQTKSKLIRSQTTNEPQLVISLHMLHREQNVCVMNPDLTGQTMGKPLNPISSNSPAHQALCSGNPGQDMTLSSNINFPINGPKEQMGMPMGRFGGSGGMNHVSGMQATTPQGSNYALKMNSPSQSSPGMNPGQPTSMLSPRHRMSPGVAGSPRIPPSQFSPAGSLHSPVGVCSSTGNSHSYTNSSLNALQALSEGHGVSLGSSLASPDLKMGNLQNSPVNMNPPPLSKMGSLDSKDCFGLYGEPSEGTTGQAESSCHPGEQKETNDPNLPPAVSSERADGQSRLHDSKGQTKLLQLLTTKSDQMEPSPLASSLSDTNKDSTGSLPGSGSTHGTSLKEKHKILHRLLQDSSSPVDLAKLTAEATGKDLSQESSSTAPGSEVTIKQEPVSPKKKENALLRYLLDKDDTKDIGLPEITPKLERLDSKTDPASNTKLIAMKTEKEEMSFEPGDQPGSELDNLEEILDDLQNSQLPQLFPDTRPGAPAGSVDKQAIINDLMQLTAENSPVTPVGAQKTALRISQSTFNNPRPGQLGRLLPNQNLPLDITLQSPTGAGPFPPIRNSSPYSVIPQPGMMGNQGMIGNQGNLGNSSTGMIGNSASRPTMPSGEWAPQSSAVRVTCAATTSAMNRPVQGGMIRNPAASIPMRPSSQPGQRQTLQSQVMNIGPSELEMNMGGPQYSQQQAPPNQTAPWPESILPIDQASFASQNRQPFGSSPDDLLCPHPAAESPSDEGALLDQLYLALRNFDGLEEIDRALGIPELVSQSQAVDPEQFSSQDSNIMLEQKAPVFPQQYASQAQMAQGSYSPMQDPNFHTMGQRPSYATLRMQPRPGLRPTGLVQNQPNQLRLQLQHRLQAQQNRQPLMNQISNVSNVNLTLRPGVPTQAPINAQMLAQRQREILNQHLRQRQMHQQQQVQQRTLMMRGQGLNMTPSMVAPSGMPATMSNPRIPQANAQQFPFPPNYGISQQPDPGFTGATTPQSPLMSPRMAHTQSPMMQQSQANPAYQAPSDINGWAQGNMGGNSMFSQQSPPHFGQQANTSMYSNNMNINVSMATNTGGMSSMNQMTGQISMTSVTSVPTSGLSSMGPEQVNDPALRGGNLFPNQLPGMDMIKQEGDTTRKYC

[8] = target: T3, Heat shock factor protein 1 (Mus musculus, UniProt P38532); assay: HSF1 potentiators in luciferase reporter cells, confirmation, cell-based, NIH3T3, luminescence, dose retest (AID 435004); format: functional;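 further: stress induced by proteasome inhibitor MG132 added 30 min after compound; luciferase reporter driven by HSF1 response element in NIH3T3 cells; actives raise luminescence as potentiators of the MG132 stress response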
T3 sequence (P38532 whole entry): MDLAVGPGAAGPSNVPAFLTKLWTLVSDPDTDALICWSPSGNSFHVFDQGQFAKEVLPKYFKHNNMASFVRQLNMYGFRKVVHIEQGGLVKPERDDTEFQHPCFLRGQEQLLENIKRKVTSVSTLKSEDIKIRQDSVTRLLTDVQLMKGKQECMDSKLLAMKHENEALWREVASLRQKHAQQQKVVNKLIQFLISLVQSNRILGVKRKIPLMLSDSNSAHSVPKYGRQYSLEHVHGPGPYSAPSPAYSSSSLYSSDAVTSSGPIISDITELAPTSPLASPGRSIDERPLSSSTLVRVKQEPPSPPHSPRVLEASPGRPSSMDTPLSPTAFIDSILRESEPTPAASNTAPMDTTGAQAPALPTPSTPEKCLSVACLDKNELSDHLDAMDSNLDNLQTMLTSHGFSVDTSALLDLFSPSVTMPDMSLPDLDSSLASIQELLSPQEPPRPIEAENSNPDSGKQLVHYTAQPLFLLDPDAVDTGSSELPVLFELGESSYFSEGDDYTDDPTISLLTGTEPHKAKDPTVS

[9] = target: Peroxisome proliferator-activated receptor gamma/Nuclear receptor coactivator 3 (Homo sapiens, UniProt P37231); format: functional;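 further: agonist potency for raising coactivator recruitment to the receptor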
[10] = target: Peroxisome proliferator-activated receptor gamma/Nuclear receptor coactivator 1 (Homo sapiens, UniProt P37231); format: functional;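 further: agonist potency as compounds enhance coactivator SRC-1 recruitment to PPARgamma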
[11] = HEp-2 cell cytotoxicity, dose response, cytotoxicity control for RSV inhibitor project, HTS (AID 2410); format: functional; settings: human respiratory syncytial virus
HeLa = assay: HeLa cell cytotoxicity, dose response, cytotoxicity control for MITF activator project, CellTiter-Glo luminescence, cherry-pick samples (AID 540259); format: functional, cell-based; settings: Homo sapiens
[12] = target: T4, Carboxy-terminal domain RNA polymerase II polypeptide A small phosphatase 1 (Homo sapiens, UniProt Q9GZU7); assay: inhibitors of CTDSP1, concentration-response testing, biochemical assay, absorbance-based, actives from ultra-high-throughput screening (AID 540297); format: functional
T4 sequence (Q9GZU7 whole entry): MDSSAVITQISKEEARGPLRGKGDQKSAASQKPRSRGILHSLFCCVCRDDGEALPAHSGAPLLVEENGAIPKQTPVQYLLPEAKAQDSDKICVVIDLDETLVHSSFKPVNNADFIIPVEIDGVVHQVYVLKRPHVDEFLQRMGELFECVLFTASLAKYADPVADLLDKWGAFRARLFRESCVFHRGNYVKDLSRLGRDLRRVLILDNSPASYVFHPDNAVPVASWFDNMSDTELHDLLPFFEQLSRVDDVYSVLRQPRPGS

Protein Wnt-3a = Protein Wnt-3a (Mus musculus, UniProt P27467); assay: Wnt3a-driven reporter signaling inhibition, dose response, selectivity assay for Gli-SUFU antagonist project, Wnt-LIGHT cells, luminescence (AID 651570); format: functional; settings: read-out: IC50_Mean;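 further: Wnt-LIGHT reporter cells stimulated with conditioned medium from Wnt3a-producing cells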
Protein Wnt-3a, sequence (P27467 whole entry): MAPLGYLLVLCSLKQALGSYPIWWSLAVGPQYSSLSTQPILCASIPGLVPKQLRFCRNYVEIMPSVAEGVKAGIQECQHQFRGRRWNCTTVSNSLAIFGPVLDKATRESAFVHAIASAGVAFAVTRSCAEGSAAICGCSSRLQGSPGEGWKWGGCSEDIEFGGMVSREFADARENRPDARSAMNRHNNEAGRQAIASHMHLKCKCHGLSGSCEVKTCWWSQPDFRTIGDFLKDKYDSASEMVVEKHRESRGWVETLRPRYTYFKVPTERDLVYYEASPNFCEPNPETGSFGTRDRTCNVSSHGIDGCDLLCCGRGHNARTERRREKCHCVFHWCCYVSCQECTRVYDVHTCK

INS1 = assay: beta cell apoptosis inhibitors, cytokine rescue, dose response, luminescence, retest (AID 449756); format: functional, cell-based; settings: Rattus norvegicus;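 further: cell death triggered by IL-1 beta plus TNF-alpha plus IFN-gamma mixture; protective hits raise ATP signal compared with cytokine alone wells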
[13] = THP-1 cell cytotoxicity, dose response, cytotoxicity control for Vif-APOBEC3G degradation inhibitor project, THP-1 cells (AID 1117359); format: functional; settings: Human immunodeficiency virus 1, THP-1
[14] = Luminescence Cell-Based Dose Retest to Confirm Inhibitors of Cancer Stem Cells. [Related pubchem assays (depositor defined):AID2717, AID2721]; format: functional; settings: Homo sapiens
[15] = target: Mitogen-activated protein kinase 10 (Homo sapiens, UniProt P53779); assay: Dose response biochemical screening assay for inhibitors of c-Jun N-Terminal Kinase 3 (JNK3). [Related pubchem assays: 746 ]
Mitogen-activated protein kinase 10, sequence (P53779 whole entry): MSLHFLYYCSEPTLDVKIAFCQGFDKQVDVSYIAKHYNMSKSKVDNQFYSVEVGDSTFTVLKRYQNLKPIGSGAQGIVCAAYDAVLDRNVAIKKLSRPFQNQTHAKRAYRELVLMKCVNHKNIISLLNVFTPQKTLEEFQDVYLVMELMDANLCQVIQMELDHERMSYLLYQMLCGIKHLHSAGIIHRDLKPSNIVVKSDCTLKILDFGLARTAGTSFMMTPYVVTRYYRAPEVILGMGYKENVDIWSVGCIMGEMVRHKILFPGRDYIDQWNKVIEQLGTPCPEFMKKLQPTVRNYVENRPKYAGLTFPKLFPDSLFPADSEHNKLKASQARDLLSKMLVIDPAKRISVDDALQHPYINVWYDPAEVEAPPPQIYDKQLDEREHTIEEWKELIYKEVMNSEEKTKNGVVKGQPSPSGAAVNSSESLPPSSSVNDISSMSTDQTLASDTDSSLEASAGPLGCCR

[16] = target: T5, Rac GTPase-activating protein 1 (Homo sapiens, UniProt Q9H0H5); assay: MgcRacGAP GTPase-activating activity inhibitors, confirmation, biochemical, ADP Hunter fluorescence, primary and confirmatory (AID 624330); format: functional
T5 sequence (Q9H0H5 whole entry): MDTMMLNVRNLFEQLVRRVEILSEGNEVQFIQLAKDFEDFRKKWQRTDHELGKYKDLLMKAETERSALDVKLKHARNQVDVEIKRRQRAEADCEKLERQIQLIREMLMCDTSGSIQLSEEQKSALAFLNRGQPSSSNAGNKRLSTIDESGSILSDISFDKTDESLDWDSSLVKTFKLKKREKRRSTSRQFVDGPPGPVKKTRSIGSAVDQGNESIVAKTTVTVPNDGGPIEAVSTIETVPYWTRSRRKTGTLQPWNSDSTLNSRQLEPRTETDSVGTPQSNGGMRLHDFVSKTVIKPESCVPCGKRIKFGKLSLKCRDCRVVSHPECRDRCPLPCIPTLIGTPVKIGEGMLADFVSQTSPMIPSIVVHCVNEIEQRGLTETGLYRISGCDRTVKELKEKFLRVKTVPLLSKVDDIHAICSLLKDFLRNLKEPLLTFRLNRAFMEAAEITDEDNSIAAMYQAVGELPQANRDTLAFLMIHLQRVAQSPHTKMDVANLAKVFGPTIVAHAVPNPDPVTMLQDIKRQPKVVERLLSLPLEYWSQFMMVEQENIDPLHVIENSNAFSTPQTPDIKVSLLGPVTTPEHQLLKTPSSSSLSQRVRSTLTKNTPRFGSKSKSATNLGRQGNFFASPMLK

Large T antigen = Large T antigen (Simian virus 40, UniProt P03070); format: functional, Betapolyomavirus macacae;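 further: Confirmatory-stage PubChem screen for compounds that inhibit SV40 T antigen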
Large T antigen, sequence (P03070 whole entry): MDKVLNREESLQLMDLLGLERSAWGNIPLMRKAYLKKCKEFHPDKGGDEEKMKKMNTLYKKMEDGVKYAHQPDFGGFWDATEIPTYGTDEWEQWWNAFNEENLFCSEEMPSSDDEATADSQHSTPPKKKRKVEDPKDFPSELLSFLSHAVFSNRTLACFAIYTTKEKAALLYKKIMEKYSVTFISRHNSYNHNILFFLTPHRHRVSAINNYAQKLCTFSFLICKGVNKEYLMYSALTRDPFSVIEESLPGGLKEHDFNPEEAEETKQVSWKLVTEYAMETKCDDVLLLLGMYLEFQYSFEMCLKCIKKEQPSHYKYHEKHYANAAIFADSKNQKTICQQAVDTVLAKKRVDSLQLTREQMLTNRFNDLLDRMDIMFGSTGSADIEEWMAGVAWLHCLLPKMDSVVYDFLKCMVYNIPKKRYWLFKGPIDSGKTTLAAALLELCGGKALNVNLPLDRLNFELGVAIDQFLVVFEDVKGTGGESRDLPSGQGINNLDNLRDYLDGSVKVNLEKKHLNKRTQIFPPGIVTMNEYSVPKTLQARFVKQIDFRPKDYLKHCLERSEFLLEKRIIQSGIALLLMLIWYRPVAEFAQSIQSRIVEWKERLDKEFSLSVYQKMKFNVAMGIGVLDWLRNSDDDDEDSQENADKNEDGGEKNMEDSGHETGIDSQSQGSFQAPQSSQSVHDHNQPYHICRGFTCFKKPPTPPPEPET

Voltage-gated inwardly rectifying potassium channel KCNH2, sequence (Q12809 whole entry): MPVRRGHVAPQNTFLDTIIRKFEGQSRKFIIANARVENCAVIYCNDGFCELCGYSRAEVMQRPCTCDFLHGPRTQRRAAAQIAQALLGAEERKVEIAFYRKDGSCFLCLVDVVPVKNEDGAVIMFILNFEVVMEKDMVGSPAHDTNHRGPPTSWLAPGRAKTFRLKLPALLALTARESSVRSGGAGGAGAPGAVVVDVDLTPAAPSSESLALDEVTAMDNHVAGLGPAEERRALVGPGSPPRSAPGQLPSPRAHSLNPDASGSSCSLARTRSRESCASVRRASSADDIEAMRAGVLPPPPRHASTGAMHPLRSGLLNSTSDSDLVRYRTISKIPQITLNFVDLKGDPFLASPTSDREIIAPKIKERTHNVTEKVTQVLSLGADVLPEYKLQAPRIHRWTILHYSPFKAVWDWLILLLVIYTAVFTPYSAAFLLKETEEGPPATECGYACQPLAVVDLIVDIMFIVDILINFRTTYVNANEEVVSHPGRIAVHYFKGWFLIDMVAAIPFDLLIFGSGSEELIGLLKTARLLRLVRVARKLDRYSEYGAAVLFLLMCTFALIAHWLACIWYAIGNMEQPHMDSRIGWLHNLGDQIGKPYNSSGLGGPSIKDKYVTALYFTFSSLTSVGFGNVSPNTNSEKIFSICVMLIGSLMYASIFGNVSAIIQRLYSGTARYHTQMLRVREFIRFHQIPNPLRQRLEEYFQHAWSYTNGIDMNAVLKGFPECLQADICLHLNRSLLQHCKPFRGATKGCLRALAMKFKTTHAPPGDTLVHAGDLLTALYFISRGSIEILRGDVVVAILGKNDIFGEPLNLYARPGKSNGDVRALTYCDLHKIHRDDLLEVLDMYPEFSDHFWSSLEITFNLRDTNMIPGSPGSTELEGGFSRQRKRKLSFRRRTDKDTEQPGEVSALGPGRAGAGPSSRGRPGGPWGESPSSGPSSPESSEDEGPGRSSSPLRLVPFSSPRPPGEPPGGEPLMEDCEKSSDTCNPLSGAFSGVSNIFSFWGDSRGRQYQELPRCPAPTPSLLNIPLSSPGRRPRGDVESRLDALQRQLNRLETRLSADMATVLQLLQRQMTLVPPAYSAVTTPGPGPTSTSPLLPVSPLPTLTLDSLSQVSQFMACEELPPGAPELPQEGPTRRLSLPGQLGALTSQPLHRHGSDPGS

SMILES: CCCCC(CC)CNCC(CC)CCCC (stereo not given)
AC50 [1]: 10 µM (inconclusive)

IC50 (Aminopeptidase N): 43.3 µM (active)
SMILES: CNc1ccc(/C=C(\CCC(=O)O)c2nc3ccccc3s2)cc1[N+](=O)[O-]

SMILES: c1ccc(CSCc2ccccc2)cc1
AC50 [1]: 31.6 µM (inconclusive)

SMILES: O=C(Nc1cccc(Cl)c1)Nc1nccs1
EC50 [2]: > 160 µM (inactive)
EC50 [3]: 1.17 µM (active)
AC50 [4]: 8.46 µM (active)

IC50 [5]: > 100 µM (not active)
IC50 [6]: > 100 µM (inactive)
SMILES: Cc1c(-c2ccccc2)n[nH]c1C(=O)O

SMILES: CN1CCN(c2ccc3ccccc3n2)CC1
AC50 [1]: 35.5 µM (inconclusive)

IC50 [5]: > 10 µM (inconclusive)
IC50 [6]: 0.316 µM (active)
SMILES: NNC(=O)c1cc(-c2cc(F)c(F)cc2F)[nH]n1

EC50 [7]: > 79.4 µM (not active)
EC50 [8]: > 260 µM (inactive)
EC50 [9]: > 79.4 µM (not active)
EC50 [10]: > 79.4 µM (not active)
SMILES: Cc1ccc(-n2c(C)cc(C(=O)COc3c(CO)cc(F)cc3CO)c2C)cc1C

EC50 [7]: > 79.4 µM (not active)
EC50 [9]: > 79.4 µM (not active)
EC50 [10]: > 79.4 µM (not active)
SMILES: Cc1ccccc1CC1(CO)CCCN(C(=O)CCC(=O)c2ccccc2)C1 (stereo not given)
CC50 [11]: 28.5 µM (active)

IC50 [5]: > 50 µM (inconclusive)
SMILES: Cc1ccc(N2C(=O)C(Cl)=C(N(C)C)C2=O)cc1

SMILES: CCCCN1C(=O)/C(=C/C=C2\SCCN2C)SC1=S
AC50 (HeLa): 39.1 µM (active)

SMILES: O=C(O)/C=C/c1ccc(/C=C/C(=O)O)cc1
AC50 [1]: 79.4 µM (inconclusive)

SMILES: CC[N+](C)(CC)CCC(c1ccccc1)C1CCCCC1 (stereo not given)
IC50 [12]: 4.65 µM (active)
IC50 (Protein Wnt-3a): 39 µM (inactive)
AC50 (INS1): 233 µM (active)

SMILES: c1ccc(-c2noc(COc3ccc4c(c3)OCO4)n2)cc1
AC50 (HeLa): 339 µM (active)

IC50 (Aminopeptidase N): 26.9 µM (active)
SMILES: COc1ccccc1NS(=O)(=O)c1ccc(Cl)c(NC(=O)C(C)N2C(=O)c3ccccc3C2=O)c1 (stereo not given)

AC50 [4]: 0.265 µM (active)
SMILES: CS(=O)(=O)Nc1ccc(-c2cc(/C=C3\SC(N)=NC3=O)cnc2O)cc1

IC50 [12]: 5.43 µM (active)
SMILES: COc1ccc(NC(=O)/C(C#N)=C/c2ccc(Br)o2)cc1
CC50 [13]: 27.4 µM (active)

IC50 [5]: > 50 µM (inconclusive)
SMILES: C[C@H]1CN(C2=C(Cl)C(=O)N(c3cccc(C(F)(F)F)c3)C2=O)CCN1

SMILES: O=C(Nc1ccc(Cl)c(Cl)c1)Nc1ccccc1O
AC50 (HeLa): 49.7 µM (active)
AC50 [14]: 5.67 µM (active)

IC50 [15]: 12.5 µM (not active)
AC50 [4]: 9.32 µM (active)
SMILES: NC(=O)c1cc(Br)cc2c3c([nH]c12)CCCC3

AC50 [4]: 1.04 µM (active)
SMILES: CCN1C(=O)/C(=C2/Sc3ccccc3N2CC)S/C1=N\c1nc[nH]n1

IC50 [16]: 28.9 µM (active)
IC50 (Large T antigen): 17.4 µM (active)
AC50 [4]: 0.585 µM (active)
SMILES: O=C1OCC/C1=C\c1ccc(O)cc1

IC50 [6]: 93.4 µM (active)
SMILES: Cn1c(SCC(=O)c2ccc(O)c(O)c2)nnc1-c1ccccc1
